From ChEMBL document CHEMBL1123618, “alpha,alpha-Difluoro-beta-aminodeoxystatine-containing renin inhibitory peptides” (J Med Chem, 1987)

Target: T1, Renin (Homo sapiens, UniProt P00797)
T1 sequence (P00797 whole entry): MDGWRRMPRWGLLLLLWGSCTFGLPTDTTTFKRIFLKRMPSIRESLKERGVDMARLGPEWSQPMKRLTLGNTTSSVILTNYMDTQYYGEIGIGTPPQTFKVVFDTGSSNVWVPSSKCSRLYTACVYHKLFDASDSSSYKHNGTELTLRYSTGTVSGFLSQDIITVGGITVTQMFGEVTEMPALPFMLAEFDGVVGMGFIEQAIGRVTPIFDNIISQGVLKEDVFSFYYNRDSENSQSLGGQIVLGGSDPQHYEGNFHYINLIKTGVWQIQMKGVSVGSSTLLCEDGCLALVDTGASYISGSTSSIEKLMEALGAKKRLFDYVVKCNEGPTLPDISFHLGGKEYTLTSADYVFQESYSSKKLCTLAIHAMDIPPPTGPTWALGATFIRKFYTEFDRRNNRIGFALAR
Experiment: Inhibitory activity against human plasma renin.
Type: cell-free

IC50	Structure (SMILES)
480 nM	CC[C@H](C)[C@H](NC(=O)C[C@@H](N)[C@H](CC(C)C)NC(=O)[C@H](Cc1c[nH]cn1)NC(=O)[C@H](Cc1ccccc1)NC(=O)OC(C)(C)C)C(=O)NCc1ccccn1
330 nM	CC[C@H](C)[C@H](NC(=O)C[C@@H](O)[C@H](CC(C)C)NC(=O)[C@H](Cc1c[nH]cn1)NC(=O)[C@H](Cc1ccccc1)NC(=O)OC(C)(C)C)C(=O)NCc1ccccn1
2800 nM	CC[C@H](C)[C@H](NC(=O)C(F)(F)[C@@H](N)[C@H](CC(C)C)NC(=O)[C@H](Cc1cnc[nH]1)NC(=O)[C@H](Cc1ccccc1)NC(=O)OC(C)(C)C)C(=O)NCc1ccccn1
340 nM	CC[C@H](C)[C@H](NC(=O)C(F)(F)[C@H](N)[C@H](CC(C)C)NC(=O)[C@H](Cc1cnc[nH]1)NC(=O)[C@H](Cc1ccccc1)NC(=O)OC(C)(C)C)C(=O)NCc1ccccn1
15 nM	CC[C@H](C)[C@H](NC(=O)C[C@H](N)[C@H](CC(C)C)NC(=O)[C@H](Cc1c[nH]cn1)NC(=O)[C@H](Cc1ccccc1)NC(=O)OC(C)(C)C)C(=O)NCc1ccccn1
